Common to all, as to assay type: biochemical
For test [1], the target named is T1, human vanin-1 (Homo sapiens (Human), UniProt O95497). As to the kind of experiment: Human Vanin-1 Enzyme Assay 1. Particulars: 25 pM human vanin-1, 50 uM pantetheine 7-amino-4-trifluoromethylcoumarin, 30 min preincubation, 60 min. In outline: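 Purified His6/FLAG-tagged extracellular domain of human vanin-1, secreted from CHO cells, at 25 pM final in 50 mM Tris-HCl pH 8.0, 50 mM KCl, 0.005% Brij-35, 1.6 mM cysteamine, 0.5% DMSO. Inhibitor preincubated 30 min at room temperature; 50 uM pantetheine-AFC substrate, 60 min, fluorescence at 405/510 nm; 11-point four-fold dilution series.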
T1 sequence (O95497 22-491): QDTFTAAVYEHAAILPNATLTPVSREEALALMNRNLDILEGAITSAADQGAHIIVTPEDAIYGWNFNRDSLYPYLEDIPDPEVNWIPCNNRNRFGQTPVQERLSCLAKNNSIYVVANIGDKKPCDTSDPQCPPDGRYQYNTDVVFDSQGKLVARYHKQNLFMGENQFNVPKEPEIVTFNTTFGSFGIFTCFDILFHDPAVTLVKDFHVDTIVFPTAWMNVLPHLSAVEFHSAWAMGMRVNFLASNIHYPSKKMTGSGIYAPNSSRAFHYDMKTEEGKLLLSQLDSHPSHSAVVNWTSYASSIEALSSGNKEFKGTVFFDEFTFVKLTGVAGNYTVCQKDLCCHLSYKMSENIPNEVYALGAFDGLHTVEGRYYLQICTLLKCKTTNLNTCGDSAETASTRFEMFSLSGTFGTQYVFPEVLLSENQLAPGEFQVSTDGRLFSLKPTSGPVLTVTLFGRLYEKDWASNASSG

The target of test [2] is T1, human vanin-1. As to the kind of experiment: Human Vanin-1 Enzyme Assay 3. Particulars: 2 nM human vanin-1, 10 uM substrate, 15 min. In outline: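 His/FLAG-tagged extracellular domain of human vanin-1 from CHO cells, used at 2 nM final, with 10 uM pantetheine-AFC substrate. Buffer: 50 mM Tris-HCl pH 8.0, 50 mM KCl, 0.005% Brij-35, 1.5 mM cysteamine, 1% DMSO. 15 min at room temperature; fluorescence read at 405/505 nm across an 11-point 2-fold dilution series.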

Test [3] deals with T1, human vanin-1. The experiment in a line: Human Vanin-1 Enzyme Assay 2. Conditions: 1 nM human vanin-1, 10 uM substrate, 45 min. As to the method: Human Vanin-1 Enzyme Assay 2.
The in vitro assay measures enzymatic cleavage of the fluorescently-labeled vanin substrate, pantetheine 7-amino-4-trifluoromethylcoumarin, by human vanin-1.
The vanin-1 protein was prepared in-house from a construct expressing the extracellular domain of human vanin-1 (GenBank ID NM_004666) preceded N-terminally by the honey bee melittin signal peptide, a GSG linker sequence, a His6X tag and a FLAG tag. The secreted, soluble enzyme was purified from the conditioned medium from a CHO cell line stably expressing the resulting protein. Enzyme purification was performed through sequential Ni NTA and size-exclusion chromatography steps.
On the day of the assay, dose response plates were prepared by diluting the inhibitors in DMSO at compound concentration 100-fold the final in-assay concentration. Concentration series were prepared by serially diluting in DMSO in a half-log series for a total of 11 data points. Intermediate compound plates containing compound in 10% DMSO were then created by diluting the compounds 10-fold in assay buffer consisting of 50 mM Tris-HCl pH=8.0, 50 mM KCl, 0.005% Brij-35 and 1.5 mM cysteamine. To begin the assay 3 μL were transferred from the intermediate compound plate to the assay plate.
A working solution of human vanin-1 was prepared by diluting the enzyme stock to 1.25 nM in assay buffer. Next, 24 μL of the vanin-1 working solution were transferred to the assay plate. The enzyme reaction was then initiated by the addition of 3 μL of 100 μM pantetheine 7-amino-4-trifluoromethylcoumarin prepared in assay buffer. The final concentrations in the assay were 1 nM human vanin-1 and 10 uM substrate. The final concentration of DMSO was 1%. The assay plates were incubated for 45 minutes and before they were read on a Spectramax M5 using a 405 nm excitation wavelength and a 505 nm emission wavelength for detection.

Results on 27 molecules are retold here after patent US10308615B2, “Heterocyclic compounds as inhibitors of Vanin-1 enzyme” (Pfizer Inc., priority 2015, dated 2019).

A value given as a limit tells only on which side of the number the result lay.

Regarding `N#Cc1cccc(C(=O)c2cnc(NCc3ccc(F)cc3)nc2)c1` [Example 31, 3-({2-[(4-fluorobenzyl)amino]pyrimidin-5-yl}carbonyl) benzonitrile], the 50% inhibitory concentration (IC50) in test [1] amounted to 102 nM; in test [2] it was 14 nM; in test [3] it was 57.2 nM.
Take `N#Cc1cccc(C(=O)c2cnc(NCc3ccccc3Cl)nc2)c1` [Example 32, 3-({2-[(2-chlorobenzyl)amino]pyrimidin-5-yl}carbonyl) benzonitrile]: the IC50 was found to be 95.3 nM in test [1], 14.3 nM in test [2] and 71.3 nM in test [3].
Take `NC(=O)c1ccc(CNc2ncc(C(=O)c3cccc(C(F)(F)F)c3)cn2)cc1` [Example 33, 4-[({5-[3-(trifluoromethyl)benzoyl]pyrimidin-2-yl}amino)methyl] benzamide]: the figures for the IC50 in test [1], in test [2] and in test [3] were 7.3 nM, 206 nM and 55.9 nM, respectively.
The corresponding values for `O=C(c1ccccc1)c1cnc(NCc2cccnc2)nc1` [Example 34, phenyl{2-[(pyridin-3-ylmethyl)amino]pyrimidin-5-yl}methanone] are 53.7 nM, 69.3 nM and 108 nM.
On to `Cc1cccc(C(=O)c2cnc(NCc3ccccn3)nc2)c1` [Example 38, (3-methylphenyl){2-[(pyridin-2-ylmethyl)amino]pyrimidin-5-yl}methanone], for which the values for the IC50 in test [1], in test [2] and in test [3] were 857 nM, 735 nM and 868 nM, respectively.
The like results for `Cc1cccc(C(=O)c2cnc(NCc3ccccc3)nc2)c1` [Example 40, [2-(benzylamino)pyrimidin-5-yl](3-methylphenyl) methanone] were, in that order, 1740 nM, 543 nM and 170 nM.
`COc1cccc(C(=O)c2cnc(NCc3ccccc3)nc2)c1` [Example 45, [2-(benzylamino)pyrimidin-5-yl](3-methoxyphenyl) methanone]: the IC50 in test [1] worked out at 794 nM; in test [2], 144 nM; in test [3], 188 nM.
The like results for `NC(=O)c1cccc(CNc2ncc(C(=O)c3cccc(Cl)c3)cn2)c1` [Example 48, 3-({[5-(3-chlorobenzoyl)pyrimidin-2-yl]amino}methyl) benzamide] were, in that order, 218 nM, 398 nM and 357 nM.
The corresponding values for `O=C(O)c1ccc(CNc2ncc(C(=O)c3ccc(F)c(F)c3)cn2)cc1` [Example 49, 4-({[5-(3,4-difluorobenzoyl)pyrimidin-2-yl]amino}methyl) benzoic acid] are 5690 nM, 112 nM and more than 7620 nM.
The corresponding values for `COc1ccc(C(=O)c2cnc(NCc3ccc(C(N)=O)cc3)nc2)cc1` [Example 59, 4-({[5-(4-methoxybenzoyl)pyrimidin-2-yl]amino}methyl) benzamide] are 2280 nM, 192 nM and 624 nM.
Regarding `N#Cc1cccc(C(=O)c2cnc(NC3(c4ccccc4)CC3)nc2)c1` [Example 65, 3-({2-[(1-phenylcyclopropyl)amino]pyrimidin-5-yl}carbonyl) benzonitrile], the IC50 in test [1] came out at 18.8 nM; in test [2] it was 12 nM; in test [3], 22.1 nM.
The like results for `O=C(c1cnc(NC2(c3ccccc3)CC2)nc1)c1cccc(C(F)(F)F)c1` [Example 66, {2-[(1-phenylcyclopropyl)amino]pyrimidin-5-yl}[3-(trifluoromethyl)phenyl]methanone] were, in that order, 21.3 nM, 10.6 nM and 44.8 nM.
The corresponding values for `N#Cc1cccc(C(=O)c2cnc(NCc3ccc(C(N)=O)cc3)nc2)c1` [Example 68, 4-({[5-(3-cyanobenzoyl)pyrimidin-2-yl]amino}methyl) benzamide] are 107 nM, 78.8 nM and 73.1 nM.
The like results for `Cc1ccc(CNc2ncc(C(=O)c3cccc(C(F)(F)F)c3)cn2)cn1` [Example 73, (2-{[(6-methylpyridin-3-yl)methyl]amino}pyrimidin-5-yl)[3-(trifluoromethyl)phenyl]methanone] were, in that order, 1.7 nM, 1.2 nM and 10.6 nM.
In the case of `NC(=O)c1ccc(CNc2ncc(C(=O)c3ccc(F)c(C(F)(F)F)c3)cn2)cc1` [Example 87, 4-[({5-[4-fluoro-3-(trifluoromethyl)benzoyl]pyrimidin-2-yl}amino)methyl] benzamide], the concentration for half-maximal inhibition (IC50) in test [1] was 67.1 nM; in test [2], 25.9 nM; in test [3], 45.2 nM.
`O=C(c1cccc(C(F)(F)F)c1)c1ccc(NCc2cccnc2)nn1` [Example 91, {6-[(pyridin-3-ylmethyl)amino]pyridazin-3-yl}[3-(trifluoromethyl)phenyl]methanone]: the values for the IC50 in test [1], in test [2] and in test [3] were 789 nM, 91.3 nM and 783 nM, respectively.
With `NC(=O)c1ccc(CNc2ncc(C(=O)c3cc(F)cc(C(F)(F)F)c3)cn2)cc1` [Example 95, 4-[({5-[3-fluoro-5-(trifluoromethyl)benzoyl]pyrimidin-2-yl}amino)methyl] benzamide], the figures for the IC50 in test [1], in test [2] and in test [3] were 91.9 nM, 166 nM and 242 nM, respectively.
The corresponding values for `O=C(c1cnc(NCc2cccnc2)nc1)c1ccc2c(c1)OCCO2` [Example 98, 2,3-dihydro-1,4-benzodioxin-6-yl{2-[(pyridin-3-ylmethyl)amino]pyrimidin-5-yl}methanone] are 102 nM, 55.5 nM and 149 nM.
Take `O=C(c1cnc(NCc2cccnc2)nc1)c1cccs1` [Example 100, {2-[(pyridin-3-ylmethyl)amino]pyrimidin-5-yl}(thiophen-2-yl)methanone]: the IC50 in test [1] amounted to 162 nM; in test [2] it was 145 nM; in test [3], 122 nM.
The corresponding values for `O=C(c1cnc(NCc2cccnc2)nc1)c1ccccc1Cl` [Example 102, (2-chlorophenyl){2-[(pyridin-3-ylmethyl)amino]pyrimidin-5-yl}methanone] are 858 nM, 722 nM and 549 nM.
The corresponding values for `Cc1ccc2cc(C(=O)c3cnc(NCc4cccnc4)nc3)ccc2n1` [Example 104, (2-methylquinolin-6-yl){2-[(pyridin-3-ylmethyl)amino]pyrimidin-5-yl}methanone] are 196 nM, 200 nM and 116 nM.
With `N#Cc1cccc(C(=O)c2cnc(NCc3ccc(C(N)=O)nc3)nc2)c1` [Example 105, 5-({[5-(3-cyanobenzoyl)pyrimidin-2-yl]amino}methyl) pyridine-2-carboxamide], the figures for the IC50 in test [1], in test [2] and in test [3] were 146 nM, 173 nM and 195 nM, respectively.
Consider `NC(=O)c1ccc(CNc2ncc(C(=O)c3ccccc3)cn2)cc1` [Example 106, 4-{[(5-benzoylpyrimidin-2-yl)amino]methyl} benzamide], for which the IC50 came to 387 nM in test [1], 423 nM in test [2] and 990 nM in test [3].
The corresponding values for `N#Cc1cccc(C(=O)c2cnc(NCc3cccnn3)nc2)c1` [Example 108, 3-({2-[(pyridazin-3-ylmethyl)amino]pyrimidin-5-yl}carbonyl) benzonitrile] are 111 nM, 96.7 nM and 110 nM.
The corresponding values for `O=C(c1ccccc1)c1cnc(NCc2cncnc2)nc1` [Example 109, phenyl{2-[(pyrimidin-5-ylmethyl)amino]pyrimidin-5-yl}methanone] are 143 nM, 95.3 nM and 145 nM.
The like results for `CC(C)(Nc1ncc(C(=O)c2ccccc2)cn1)c1ccccc1` [Example 110, phenyl{2-[(2-phenylpropan-2-yl)amino]pyrimidin-5-yl}methanone] were, in that order, 422 nM, 63.5 nM and 238 nM.
As for `O=C(c1ccccc1)c1cnc(NC2(c3ccccc3)CC2)nc1` [Example 111, phenyl{2-[(1-phenylcyclopropyl)amino]pyrimidin-5-yl}methanone], the IC50 was 367 nM in test [1], 182 nM in test [2] and 202 nM in test [3].

The term IC50 denotes the concentration that inhibits the measured activity by half. Read a high IC50 as weaker potency.
